This test deals with T1, High affinity choline transporter 1 (Homo sapiens, UniProt Q9GZV3).
T1 sequence (Q9GZV3 whole entry): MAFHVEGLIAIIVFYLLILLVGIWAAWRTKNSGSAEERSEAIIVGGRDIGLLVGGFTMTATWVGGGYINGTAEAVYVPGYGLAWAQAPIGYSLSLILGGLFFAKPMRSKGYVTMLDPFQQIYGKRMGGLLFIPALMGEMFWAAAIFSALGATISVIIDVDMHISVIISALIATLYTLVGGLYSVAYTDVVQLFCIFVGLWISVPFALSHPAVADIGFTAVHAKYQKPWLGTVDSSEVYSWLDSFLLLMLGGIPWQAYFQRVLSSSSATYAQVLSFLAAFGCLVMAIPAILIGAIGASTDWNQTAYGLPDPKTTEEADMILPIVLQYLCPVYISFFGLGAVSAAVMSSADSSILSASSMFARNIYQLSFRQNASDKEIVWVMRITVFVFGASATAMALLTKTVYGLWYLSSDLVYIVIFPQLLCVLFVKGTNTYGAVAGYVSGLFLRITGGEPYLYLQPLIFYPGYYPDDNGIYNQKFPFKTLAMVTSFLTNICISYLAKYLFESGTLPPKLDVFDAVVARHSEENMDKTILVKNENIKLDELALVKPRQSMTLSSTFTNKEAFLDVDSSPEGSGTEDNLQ
Put plainly: Substrate uptake and inhibition of the High Affinity Choline Transporter 1 (CHT1, SLC5A7) as assessed by the fluorescent FLIPR membrane potential dye in HEK-293 JumpIN-SLC5A7 cells (PubChem AID: 1794811). It is filed as functional, cell-based, HEK293.

The EC50 is the concentration giving half of the maximal effect.

`C[N+]1(C)CCOC(O)(c2ccc(-c3ccc(C4(O)C[N+](C)(C)CCO4)cc3)cc2)C1.[Br-].[Br-]` (configuration not stated): the IC50 result (hek293) is “Inhibitor: Almost Complete Inhibition At A Concentration Of 10 Μm”.

Take `C[N+](C)(C)CCO.[Cl-]` [CHOLINE CHLORIDE]: the EC50 is 17 µM.

(Values after ChEMBL document CHEMBL5209576, “Membrane potential based assay for SLC5A7 using HEK-293 SLC5A7 OE cells” (2022).)
